According to patent publication EP3408309B1 (priority 2016, dated 2017):

Experiments:
Influenza neuraminidase = settings: competitive inhibitors, background statement; cited from earlier work
[1] = system: fluorescently labeled X31; experiment: Microscale thermophoresis binding to whole virus particles; parameters: species or system influenza strain A/Aichi/2/68 H3N2; settings: apparent dissociation constant, one site binding fit; read-out: Kdapp Particle
From the text: The examined IPGSAs show one binding step. Binding constants are described as apparent dissociation constants (Kdapp) derived from a one site binding fit of each binding step. Error bars indicate the standard error of the mean (n≥3).

[2] = system: influenza A virus (X-31, H3N2); experiment: Hemagglutination inhibition (HAI) assay; assay type: cell-based
X31 = experiment: Infection inhibition experiment with X31 in BALB/c mice; assay type: in vivo; settings: X31 pretreated with inhibitor, intranasal application; loss in body weight over 11 days
Procedure: Figure 7A and 7B show the results of an infection inhibition experiment with X31 in BALB/c mice. X31 was pretreated with inhibitor at the indicated concentrations, followed by intranasal application of the mixture to sedated mice.
In the experiments, the results of which are depicted in Figure 7A, the infection-related loss in body weight was daily controlled for 11 days. IPGSA 3 at 5 mM and 1 mM sialic acid concentrations was compared to infected/untreated, uninfected/untreated or infected/control treated (linPGOH 1) cases. The effect of a cytokine storm related loss in body weight was controled by using UV inactivated X31, which was not infectious, but still able to hemagglutinate as the untreated virus. Error bars indicate the standard error of the mean (n≥5).
Error bars indicate the standard error of the mean (n≥5).

Which “IC50 values, enzyme inhibition” value (Influenza neuraminidase) does the source give for `CC(=O)N[C@H]1[C@H]([C@H](O)[C@H](O)CO)OC(C(=O)O)=C[C@@H]1N=C(N)N` [Relenza, Zanamivir] here?
The value was “low”.

What does the source list for `CC(=O)N[C@H]1[C@H]([C@H](O)[C@H](O)CO)O[C@@](OC[C@H]2O[C@@H](O[C@H]3[C@H](O)[C@@H](O)C(O)O[C@@H]3CO)[C@H](O)[C@@H](O)[C@H]2O)(C(=O)O)C[C@@H]1O` (stereo partly drawn) [α-2,6-sialyllactose]?
Kd [1]: 2.5 mM; Enhancement factor (β) ([2]; inhibition potency compared to monomeric α-2,6-sialyllactose): 1; Ki ([2]; sialic acid concentration, 4 HAU X31, lowest concentration for 100% inhibition, * = maximum tested concentration, read-out: Ki(HAI) SA): 48.1 ± 1.41 mM

Which results are given for `CCOC(=O)C1=C[C@@H](OC(CC)CC)[C@H](NC(C)=O)[C@@H](N)C1` [Tamiflu, Oseltamivir]?
IC50 values, enzyme inhibition (Influenza neuraminidase): low; infection inhibition in vivo (X31): not able to cause potent infection inhibition
